Measurements reported in PubChem BioAssay AID1963856 (Molecular Pharmacology Branch, DTP, NCI, 2024).

System: LG0567-F671-PDC KRAS tumor spheroid viability
Assay: Anticancer human tumor LG0567-F671-PDC patient-derived lung adenocarcinoma cell line growth inhibition [KRAS2]
Conditions: spheroids with HUVEC and MSC; for IC50: curve of first compound; for viability, T/C: stronger effect = lower value
How it was run: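 KRAS-mutant tumor cells were grown as spheroids with HUVEC endothelial cells and human MSCs as stroma. Targeted agents were tested alone and with KRAS pathway inhibitors. Doses started at or near clinical Cmax, or 10 microM, descending half-log.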

[1] = second compound 0.1 µM, first compound 0.0316 µM
[2] = second compound 0.1 µM, first compound 0.1 µM
[3] = second compound 0.1 µM, first compound 0.316 µM
[4] = second compound 0.1 µM, first compound 1 µM
[5] = second compound 0.1 µM, first compound 3.16 µM
[6] = second compound 0.316 µM, first compound 0.0316 µM
[7] = second compound 0.316 µM, first compound 0.1 µM
[8] = second compound 0.316 µM, first compound 0.316 µM
[9] = second compound 0.316 µM, first compound 1 µM
[10] = second compound 0.316 µM, first compound 3.16 µM
[11] = second compound 1 µM, first compound 0.0316 µM
[12] = second compound 1 µM, first compound 0.1 µM
[13] = second compound 1 µM, first compound 0.316 µM
[14] = second compound 1 µM, first compound 1 µM
[15] = second compound 1 µM, first compound 3.16 µM
[16] = second compound 3.16 µM, first compound 0.0316 µM
[17] = second compound 3.16 µM, first compound 0.1 µM
[18] = second compound 3.16 µM, first compound 0.316 µM
[19] = second compound 3.16 µM, first compound 1 µM
[20] = second compound 3.16 µM, first compound 3.16 µM
[21] = second compound 10 µM, first compound 0.0316 µM
[22] = second compound 10 µM, first compound 0.1 µM
[23] = second compound 10 µM, first compound 0.316 µM
[24] = second compound 10 µM, first compound 1 µM
[25] = second compound 10 µM, first compound 3.16 µM
[26] = second compound 0.1 µM, first compound 10 µM
[27] = second compound 0.316 µM, first compound 10 µM
[28] = second compound 1 µM, first compound 10 µM
[29] = second compound 3.16 µM, first compound 10 µM
[30] = second compound 10 µM, first compound 10 µM
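Note: drug exposure lasted seven days after spheroids formed for three days.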
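Throughout, for viability, T/C: 100% = DMSO vehicle control viability.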

| SMILES | IC50 (second compound 0.1 µM) | IC50 (second compound 0.316 µM) | IC50 (second compound 1 µM) | IC50 (second compound 3.16 µM) | IC50 (second compound 10 µM) | viability, T/C [1] | viability, T/C [2] | viability, T/C [3] | viability, T/C [4] | viability, T/C [5] | viability, T/C [6] | viability, T/C [7] | viability, T/C [8] | viability, T/C [9] | viability, T/C [10] | viability, T/C [11] | viability, T/C [12] | viability, T/C [13] | viability, T/C [14] | viability, T/C [15] | further results |
| --- | --- | --- | --- | --- | --- | --- | --- | --- | --- | --- | --- | --- | --- | --- | --- | --- | --- | --- | --- | --- | --- |
| CC1COCCN1c1cc(-c2ccnn2C)c2ccnc(-c3ccn[nH]3)c2n1 (stereo not given) + COc1cc2nc(C)nc(NC(C)c3cc(N)cc(C(F)(F)F)c3)c2cc1OC1CCOC1 | 219 nM | 79.1 nM | 67.7 nM | 14.4 nM | 46.1 nM | 60.8% | 50.1% | 56.2% | 41.2% | 15.7% | 70.7% | 46.7% | 23.8% | 15.3% | 36.7% | 59.6% | 44.2% | 36.2% | 16.9% | 18.4% | viability, T/C (second compound 0.1 µM, first compound 0.01 µM): 91.9%; viability, T/C (second compound 0.316 µM, first compound 0.01 µM): 84%; viability, T/C (second compound 1 µM, first compound 0.01 µM): 79.3%; viability, T/C (second compound 3.16 µM, first compound 0.01 µM): 55.5%; viability, T/C [16]: 37.9%; viability, T/C [17]: 21.8%; viability, T/C [18]: 10.1%; viability, T/C [19]: 4.98%; viability, T/C [20]: 24.5%; viability, T/C (second compound 10 µM, first compound 0.01 µM): 53.2%; viability, T/C [21]: 54.3%; viability, T/C [22]: 43.6%; viability, T/C [23]: 29.6%; viability, T/C [24]: 32.2%; viability, T/C [25]: 22.1% |
| CC1OCC2(CCN(c3cnc(Sc4ccnc(N)c4Cl)c(N)n3)CC2)C1N (stereo not given) + COc1cc2nc(C)nc(NC(C)c3cc(N)cc(C(F)(F)F)c3)c2cc1OC1CCOC1 | 62.2 nM | 55.5 nM | 68.1 nM | 57.7 nM | 56.2 nM | 61.9% | 40.3% | 30.6% | 27.5% | 23.1% | 58% | 41.6% | 30.6% | 25.8% | 21.7% | 61.5% | 43.6% | 32% | 26.3% | 19.2% | viability, T/C [26]: 15.3%; viability, T/C [27]: 16%; viability, T/C [28]: 13.5%; viability, T/C [16]: 58.1%; viability, T/C [17]: 42.3%; viability, T/C [18]: 32%; viability, T/C [19]: 25.4%; viability, T/C [20]: 19.2%; viability, T/C [29]: 13.6%; viability, T/C [21]: 52.7%; viability, T/C [22]: 47.4%; viability, T/C [23]: 28.9%; viability, T/C [24]: 20.2%; viability, T/C [25]: 19.5%; viability, T/C [30]: 16% |
| Cn1nccc1Nc1nccc(-c2cc3c(s2)C(C)(C)N(CCN2CCOCC2)C3=O)n1 + COc1cc2nc(C)nc(NC(C)c3cc(N)cc(C(F)(F)F)c3)c2cc1OC1CCOC1 | 495 nM | 456 nM | 506 nM | 528 nM | 609 nM | 79.7% | 67% | 55.3% | 43.2% | 31.3% | 80.5% | 70.7% | 53.9% | 42.1% | 25.3% | 68.2% | 68% | 54.8% | 41.5% | 30.3% | viability, T/C [26]: 26.6%; viability, T/C [27]: 26.1%; viability, T/C [28]: 25.5%; viability, T/C [16]: 71.1%; viability, T/C [17]: 65.6%; viability, T/C [18]: 56.5%; viability, T/C [19]: 42.9%; viability, T/C [20]: 30.8%; viability, T/C [29]: 30.2%; viability, T/C [21]: 74.6%; viability, T/C [22]: 72.2%; viability, T/C [23]: 55.8%; viability, T/C [24]: 45.4%; viability, T/C [25]: 33.4%; viability, T/C [30]: 29.5% |
